The target in experiment [1] is T1, intestinal M3 receptors (ileum) (Rattus norvegicus, UniProt P08483).
T1 construct: the ileum was excised; from tissue; host or cells: isolated rat ileum
The experiment in a line: Antagonism against intestinal M3 receptors in an isolated rat ileum. To be noted: in vitro, agonist carbachol. The protocol: 4) Tests for antagonism against the intestinal M3 receptors in an isolated rat ileum
A male SD strain rat (weighing 300-500 g) was killed by exsanguination, and the ileum was excised. This ileum was cut to make ileum preparations having a length of 2 cm. A preparation was suspended in a Magnus tube filled with 20 ml of Krebs-Henseleit nutrient solution (gassed with 95% O2 -5% CO2 and kept at 32° C.) under a load of 0.5 g. The tension of the preparation was recorded isotonically. After being equilibrated for an hour, the preparation was made to contract twice by treatment with 10^-4 M carbachol, and the second contraction induced by carbachol was used as the reference contraction. After the preparation was washed with fresh solution to make a return to the base line, a test compound was administered thereto (or no treatment was made). Ten minutes later, carbachol (10^-8 to 10^-3 M) was cumulatively administered from the lowermost concentration in three-fold increasing doses to obtain a dose-response curve. The dose-response curve was constructed by expressing responses as percentages based on the reference contraction of the preparation. The antagonistic potency (KB value) of the test compound was determined from the degree of shift of the dose-response curve obtained by treatment with the test compound.

For the next experiment, the target named is T2, muscarinic M1 receptors (Rattus norvegicus, UniProt P08482).
T2 construct: a mixture of a membrane specimen from the cerebral cortex; from tissue; host or cells: rat cerebral cortex membranes (SD rat)
T2 sequence (P08482 1-460): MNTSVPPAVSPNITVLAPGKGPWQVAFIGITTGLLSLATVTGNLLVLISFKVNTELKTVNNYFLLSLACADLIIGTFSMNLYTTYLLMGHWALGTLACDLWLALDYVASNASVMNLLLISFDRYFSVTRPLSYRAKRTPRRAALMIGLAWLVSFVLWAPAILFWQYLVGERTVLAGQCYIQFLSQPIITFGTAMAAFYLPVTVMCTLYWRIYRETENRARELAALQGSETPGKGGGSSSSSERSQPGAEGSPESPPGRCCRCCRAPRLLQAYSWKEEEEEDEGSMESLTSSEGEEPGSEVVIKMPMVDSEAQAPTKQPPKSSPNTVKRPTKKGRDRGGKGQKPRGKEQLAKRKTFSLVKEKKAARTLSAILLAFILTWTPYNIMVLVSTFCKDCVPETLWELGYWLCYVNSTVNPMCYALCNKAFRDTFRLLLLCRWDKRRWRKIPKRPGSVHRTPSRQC
Briefly: Inhibition of binding to muscarinic M1 receptors ([3H]-telenzepine, cerebral cortex membrane). As for the experimental part: In these tests, their inhibitory and antagonistic effects were expressed in terms of the dissociation constant (Ki) of each test compound which was calculated from its concentration (IC50 ) causing a 50% inhibition of the binding of a labeled ligand to muscarinic receptors. As the labeled ligand, [^3 H]-telenzepine was used for the muscarinic M1 receptors and [^3 H]-N-methylscopolamine for the muscarinic M2 and M3 receptors.
A male SD strain rat (purchased from Nippon Charles River Co., Ltd.), weighing about 250-350 g, was sacrificed, and the cerebral cortex, heart and lacrimal glands were excised. Using a Polytron (setting 5), each organ was homogenized in 5 volumes of an ice-cold buffer solution (pH 7.4) containing 50 mM tris-HCl, 5 mM magnesium chloride, 1 mM trisodium ethylenediaminetetraacetate and 20% sucrose. The resulting homogenate was centrifuged at 3,000×g at 4° C. for 15 minutes, and the supernatant was filtered through gauze and ultracentrifuged at 100,000×g at 4° C. for 45 minutes. The resulting precipitate was suspended in an ice-cold buffer solution (pH 7.4) containing 50 mM tris-HCl and 5 mM magnesium chloride (hereinafter referred briefly to as "tris buffer") and ultracentrifuged at 100,000×g at 4° C. for 45 minutes. The resulting precipitate was suspended in tris buffer so as to give a concentration of 50 mg/ml and stored at -80° C. till use. The membrane specimens so prepared were thawed prior to use and submitted to tests for the inhibition of binding to muscarinic receptors.
2) Tests for the inhibition of binding to the muscarinic M1 receptors
These tests were performed according to a modification of the method of Hargreaves et al. [Br. J. Pharmacol., Vol. 107, pp. 494-501 (1992)]. Specifically, a mixture of a membrane specimen from the cerebral cortex, 1 nM [^3 H]-telenzepine (85 Ci/mmol; manufactured by New England Nuclear) and a test compound in 0.5 ml of tris buffer was incubated at room temperature (about 20°-25° C.) for 120 minutes. After the addition of 0.5 ml of ice-cold tris buffer, the mixture was filtered by suction through a glass filter (Packard Unifilter Plate GF/C). Then, the filter was washed four times with 1 ml portions of ice-cold tris buffer and dried at 50° C. for an hour. After the addition of a scintillator (Packard Microscinti 0), the radioactivity of [^3 H]-telenzepine adsorbed to the filter was measured with a microplate scintillation counter (Packard Topcount). The nonspecific binding of [^3 H]-telenzepine to receptors was determined by the addition of […] pirenzepine. According to the method of Cheng and Prusoff [Biochem. Pharmacol., Vol. 22, pp. 3099-3108 (1973)], the affinity of the test compound (i.e., a compound in accordance with the present invention) for the muscarinic M1 receptors was determined in terms of its dissociation constant (Ki) calculated from the concentration (IC50) of the test compound which was required to cause a 50% inhibition of the binding of [^3 H]-telenzepine used as the labeled ligand.

T1 sequence (P08483 whole entry): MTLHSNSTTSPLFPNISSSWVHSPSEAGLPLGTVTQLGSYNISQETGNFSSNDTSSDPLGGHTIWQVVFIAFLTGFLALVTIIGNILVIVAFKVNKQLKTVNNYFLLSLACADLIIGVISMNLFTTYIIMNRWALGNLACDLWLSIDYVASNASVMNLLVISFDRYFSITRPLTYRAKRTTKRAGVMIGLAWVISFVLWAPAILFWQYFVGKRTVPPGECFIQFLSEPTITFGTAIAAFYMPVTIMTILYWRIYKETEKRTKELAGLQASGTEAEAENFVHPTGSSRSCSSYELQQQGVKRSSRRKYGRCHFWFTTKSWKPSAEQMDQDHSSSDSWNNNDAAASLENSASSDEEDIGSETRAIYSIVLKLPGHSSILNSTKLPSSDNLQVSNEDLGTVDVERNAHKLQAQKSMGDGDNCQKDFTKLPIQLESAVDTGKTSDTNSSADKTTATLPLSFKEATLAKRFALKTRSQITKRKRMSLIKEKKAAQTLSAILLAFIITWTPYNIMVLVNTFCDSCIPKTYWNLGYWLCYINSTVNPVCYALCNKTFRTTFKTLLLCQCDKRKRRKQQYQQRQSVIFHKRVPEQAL

The Kb is the affinity of an antagonist, worked out from how it opposes an agonist. A word on the Ki: it is a measure of affinity in units of concentration, obtained from inhibition or displacement. A higher Ki goes with weaker binding. In experiment [1], `CC(C)=CCCN1CCC(NC(=O)C(O)(c2ccccc2)C2CCC2)CC1` (centres unmarked) [Example 1, N-[1-(4-methyl-3-pentenyl)-piperidin-4-yl]-2-cyclobutyl-2-hydroxy-2-phenylacetamide] yielded a Kb of 24 nM. Also, the Ki at muscarinic M1 receptors worked out at 45 nM.
